Test results reported in patent US20140057788A1, “METHODS OF INHIBITING ETHYLENE RESPONSES IN PLANTS USING DICYCLOPROPENE COMPOUNDS” (North Carolina State University, priority 2007, published 2014).

What was measured:
ethylene responses = assay: Anti-ethylene activity when applied as a gas; format: in vivo
bananas = assay: Protection of bananas from ethylene responses; format: in vivo, banana
pea plants = assay: Effect on etiolated pea plant growth in the presence of ethylene; format: in vivo; conditions: pea plants grown in the presence of 1 ppm of ethylene, FIG. 1
Excerpt: FIG. 1. Effect of 1,6-dicyclopropenyl-hexane on etiolated plea plant growth.

Volatility = format: physicochemical

volatility (Volatility): volatile
Compound: C1=C(CCCCCCC2=CC2)C1 [1,6-dicyclopropenyl-hexane]
active concentration (ethylene responses; applied as a gas): 0.3 nL L^−1
efficiency at different temperatures (ethylene responses; in vivo): work efficiently at different temperatures
duration of protection from ethylene responses (bananas): at least 42 days
anti-ethylene activity (pea plant growth) (pea plants): significant anti-ethylene activity
